Measured values as given in patent US5977063A, “Alkylated hexapeptides” (Eli Lilly and Company, priority 1998, dated 1999).

Tests used:
Assay type in all cases: cell-based
[1] = tested on: Staphylococcus aureus 446; experiment: MIC, standard broth micro-dilution assay, SA 446; parameters: unit not given here
Protocol: (§1) The antibacterial efficacy of the present compounds is illustrated by Table II. The minimal inhibitory concentrations (MICs) were determined using a standard broth micro-dilution assay.

[2] = tested on: Staphylococcus aureus 447; experiment: MIC, standard broth micro-dilution assay, SA 447; parameters: unit not given here
Protocol: as §1

[3] = tested on: Staphylococcus haemolyticus 105; experiment: MIC, standard broth micro-dilution assay, SH 105; parameters: unit not given here
Protocol: as §1

[4] = tested on: Enterococcus faecium and faecalis (RESISTANT); conditions: geometric mean of 4-6 isolates
Protocol: as §1

[5] = tested on: Staphylococcus haemolyticus 415; experiment: MIC, standard broth micro-dilution assay, SH 415; parameters: unit not given here
Protocol: as §1

[6] = tested on: Staphylococcus aureus 489; experiment: MIC, standard broth micro-dilution assay, SA 489; parameters: unit not given here
Protocol: as §1

[7] = tested on: Enterococcus faecium and faecalis (SENSITIVE); experiment: MIC, standard broth micro-dilution assay, SENSITIVE enterococci; parameters: unit not given here; conditions: geometric mean of 4-6 isolates
Protocol: as §1

[8] = tested on: Streptococcus pyogenes C203; experiment: MIC, standard broth micro-dilution assay, SPY C203; parameters: unit not given here
Protocol: as §1

[9] = tested on: Staphylococcus epidermidis 270; experiment: MIC, standard broth micro-dilution assay, SE 270; parameters: unit not given here
Protocol: as §1

[10] = tested on: Streptococcus pneumoniae P1; experiment: MIC, standard broth micro-dilution assay, SPN P1; parameters: unit not given here
Protocol: as §1

SMILES | Minimal Inhibitory Concentration (MIC) SA 446 [1] | Minimal Inhibitory Concentration (MIC) SA 447 [2] | Minimal Inhibitory Concentration (MIC) SH 105 [3] | Minimal Inhibitory Concentration (MIC) RESISTANT [4] | Minimal Inhibitory Concentration (MIC) SH 415 [5] | Minimal Inhibitory Concentration (MIC) SA 489 [6] | Minimal Inhibitory Concentration (MIC) SENSITIVE [7] | Minimal Inhibitory Concentration (MIC) SPY C203 [8] | Minimal Inhibitory Concentration (MIC) SE 270 [9] | Minimal Inhibitory Concentration (MIC) SPN P1 [10]
CC1OC(OC2c3ccc(c(Cl)c3)Oc3cc4cc(c3OC3OC(CO)C(O)C(O)C3OC3CC(C)(N)C(O)C(C)O3)Oc3ccc(cc3Cl)C(O)C(NCCCCCCCCCCCCc3ccccc3)C(=O)NC(CC(N)=O)C(=O)NC4C(=O)NC3C(=O)NC2C(=O)NC(C(=O)O)c2cc(O)cc(O)c2-c2cc3ccc2O)CC(C)(N)C1O (stereo not shown) [Example 1, N^1 -(12-PHENYL-n-DODECYL)DESLEUCYL-A82846B] | 8 | 2 | 4 | 13 | 8 | 2 | 9.2 | 0.125 | 4 | 
C[C@@H]1O[C@@H](O[C@@H]2c3ccc(c(Cl)c3)Oc3cc4cc(c3O[C@@H]3O[C@H](CO)[C@@H](O)[C@H](O)[C@H]3O[C@H]3C[C@](C)(NCc5ccc(-c6ccccc6)cc5)[C@@H](O)[C@H](C)O3)Oc3ccc(cc3Cl)[C@@H](O)[C@@H](NCCCCCCCCCCCCc3ccccc3)C(=O)N[C@@H](CC(N)=O)C(=O)N[C@H]4C(=O)N[C@H]3C(=O)N[C@@H]2C(=O)N[C@H](C(=O)O)c2cc(O)cc(O)c2-c2cc3ccc2O)C[C@](C)(N)[C@H]1O [Example 2, N^1 -(12-PHENYL-n-DODECYL)-N^DISACC -(p-PHENYLBENZYL)-DESLEUCYL-A82846B] | 32 | > 64 | > 64 | 45 | > 64 | 64 | 24 | 4 | 32 | ≤ .06
C[C@@H]1O[C@@H](O[C@H]2[C@H](Oc3c4cc5cc3Oc3ccc(cc3Cl)[C@@H](O[C@H]3C[C@](C)(N)[C@@H](O)[C@H](C)O3)[C@@H]3NC(=O)[C@H](NC(=O)[C@@H]5NC(=O)[C@H](CC(N)=O)NC(=O)[C@H](NCc5ccc(-c6ccccc6)cc5)[C@H](O)c5ccc(c(Cl)c5)O4)c4ccc(O)c(c4)-c4c(O)cc(O)cc4[C@@H](C(=O)O)NC3=O)O[C@H](CO)[C@@H](O)[C@@H]2O)C[C@](C)(N)[C@H]1O [Example 3, N^1- (p-PHENYLBENZYL)-DESLEUCYL-A82846B] | 8 | 8 | 8 | > 128 | 16 | 8 | 21 | ≤ .06 | 8 | ≤ .06
C[C@@H]1O[C@@H](O[C@@H]2c3ccc(c(Cl)c3)Oc3cc4cc(c3O[C@@H]3O[C@H](CO)[C@@H](O)[C@H](O)[C@H]3O[C@H]3C[C@](C)(NCc5ccc(-c6ccccc6)cc5)[C@@H](O)[C@H](C)O3)Oc3ccc(cc3Cl)[C@@H](O)[C@@H](NCc3ccc(-c5ccccc5)cc3)C(=O)N[C@@H](CC(N)=O)C(=O)N[C@H]4C(=O)N[C@H]3C(=O)N[C@@H]2C(=O)N[C@H](C(=O)O)c2cc(O)cc(O)c2-c2cc3ccc2O)C[C@](C)(N)[C@H]1O [Example 4, N^1,N^DISACC -BIS(p-PHENYLBENZYL)-DESLEUCYL-A82846B] | 4 | 2 | 2 | 53 | 2 | 2 | 21 | ≤ .06 | 2 | ≤ .06
C[C@@H]1O[C@@H](O[C@@H]2c3ccc(c(Cl)c3)Oc3cc4cc(c3O[C@@H]3O[C@H](CO)[C@@H](O)[C@H](O)[C@H]3O[C@H]3C[C@](C)(NCc5ccc(-c6ccccc6)cc5)[C@@H](O)[C@H](C)O3)Oc3ccc(cc3Cl)[C@@H](O)[C@@H](NCc3ccccc3)C(=O)N[C@@H](CC(N)=O)C(=O)N[C@H]4C(=O)N[C@H]3C(=O)N[C@@H]2C(=O)N[C@H](C(=O)O)c2cc(O)cc(O)c2-c2cc3ccc2O)C[C@](C)(N)[C@H]1O [Example 5, N^1 -BENZYL-N^DISACC -(p-PHENYLBENZYL)-DESLEUCYL-A82846B] | 2 | 2 | 2 | 23 | 2 | 2 | 9.2 | 0.125 | 2 | 0.5
C[C@@H]1O[C@@H](O[C@H]2[C@H](Oc3c4cc5cc3Oc3ccc(cc3Cl)[C@@H](O[C@H]3C[C@](C)(NCc6ccccc6)[C@@H](O)[C@H](C)O3)[C@@H]3NC(=O)[C@H](NC(=O)[C@@H]5NC(=O)[C@H](CC(N)=O)NC(=O)[C@H](NCc5ccccc5)[C@H](O)c5ccc(c(Cl)c5)O4)c4ccc(O)c(c4)-c4c(O)cc(O)cc4[C@@H](C(=O)O)NC3=O)O[C@H](CO)[C@@H](O)[C@@H]2O)C[C@](C)(NCc2ccc(-c3ccccc3)cc2)[C@H]1O [Example 6, N^1,N^MONOSACC -DIBENZYL-N^DISACC -(p-PHENYLBENZYL)-DESLEUCYL-A82846B] | 2 | 2 | 0.5 | 16 | 1 | 2 | 6.1 | 0.125 | 0.5 | 0.5
CCCCCCN[C@H]1C(=O)N[C@@H](CC(N)=O)C(=O)N[C@H]2C(=O)N[C@H]3C(=O)N[C@H](C(=O)N[C@H](C(=O)O)c4cc(O)cc(O)c4-c4cc3ccc4O)[C@H](O[C@H]3C[C@](C)(N)[C@@H](O)[C@H](C)O3)c3ccc(c(Cl)c3)Oc3cc2cc(c3O[C@@H]2O[C@H](CO)[C@@H](O)[C@H](O)[C@H]2O[C@H]2C[C@](C)(NCCCCCC)[C@@H](O)[C@H](C)O2)Oc2ccc(cc2Cl)[C@H]1O [Example 7, N^1,N^DISACC -DIHEXYLDESLEUCYL-A82846B] | 16 | 8 | 4 | > 128 | 8 | 8 | 111 | 8 | 16 | 8
CCCCCCN[C@H]1C(=O)N[C@@H](CC(N)=O)C(=O)N[C@H]2C(=O)N[C@H]3C(=O)N[C@H](C(=O)N[C@H](C(=O)O)c4cc(O)cc(O)c4-c4cc3ccc4O)[C@H](O[C@H]3C[C@](C)(NCCCCCC)[C@@H](O)[C@H](C)O3)c3ccc(c(Cl)c3)Oc3cc2cc(c3O[C@@H]2O[C@H](CO)[C@@H](O)[C@H](O)[C@H]2O[C@H]2C[C@](C)(NCCCCCC)[C@@H](O)[C@H](C)O2)Oc2ccc(cc2Cl)[C@H]1O [Example 8, N^1,N^DISACC,N^MONOSACC -TRI-n-HEXYLDESLEUCYL-A82846B] | 16 | 8 | 4 | 76 | 16 | 8 | 55 | 1 | 8 | 2
